Data: patent US5631354A, “5-O-desosaminylerythronolide derivatives” (Taisho Pharmaceutical Co., Ltd., priority 1991, dated 1997)
Values after ≈ are worked out from the molar mass of the structure shown. Read-outs that look alike come from different tables or passages of the source.

Legend:
Assay in all cases: in vitro antibacterial activity (MIC measuring method of Japanese Chemotherapeutic Association)
Format in all cases: cell-based
S. epidermides IID 866 = settings: read-out: MIC value (minimum inhibitory concentration)
Description: (§1) The in vitro antibacterial activity of the compounds of the present invention against various test bacteria was determined according to the MIC measuring method of Japanese Chemotherapeutic Association by using a sensitive disc media (available from Eiken Chemical Co.). 6-O-methylerythromycin A was used as a reference agent in Table 1, and erythromycin A in Table 2.

S. aureus B1 = settings: Staphylococcus aureus
Description: as §1

S. aureus Smith 4 = settings: Staphylococcus aureus, SMITH4, sensitive disc media, read-out: MIC value (minimum inhibitory concentration)
Description: as §1

E. faecalis CSJ 1212 = settings: Enterococcus faecalis
Description: as §1

S. aureus J-109 = settings: Staphylococcus aureus, J109, sensitive disc media, read-out: MIC value (minimum inhibitory concentration)
Description: as §1

S. aureus C1 = settings: Staphylococcus aureus
Description: as §1

S. aureus 209P-JC = settings: Staphylococcus aureus, read-out: MIC value (minimum inhibitory concentration)
Description: as §1

[1] = B1, read-out: MIC value (minimum inhibitory concentration)
[2] = CSJ1212, read-out: MIC value (minimum inhibitory concentration)
[3] = CSJ1212, E. faecalis CSJ 1212, sensitive disc media, read-out: MIC value (minimum inhibitory concentration)
[4] = C1, read-out: MIC value (minimum inhibitory concentration)
[5] = S. aureus 209P-JC, sensitive disc media

CC[C@H]1OC(=O)[C@H](C)[C@@H](O[C@H]2C[C@@](C)(OC)[C@@H](O)[C@H](C)O2)[C@H](C)[C@@H](O[C@@H]2O[C@H](C)C[C@H](N(C)C)[C@H]2O)[C@](C)(OC)C[C@@H](C)C(=O)[C@H](C)[C@@H](O)[C@]1(C)O [6-O-methylerythromycin A, reference compound]
MIC (S. epidermides IID 866): 0.1 µg/mL (≈ 0.134 µM)
MIC (S. aureus B1; [1]): > 100 µg/mL
MIC (S. aureus Smith 4): 0.1 µg/mL (≈ 0.134 µM)
MIC (E. faecalis CSJ 1212; [2]): 0.78 µg/mL (≈ 1.04 µM)
MIC (S. aureus J-109): > 100 µg/mL
MIC (S. aureus C1; S. aureus C1, sensitive disc media, read-out: MIC value (minimum inhibitory concentration)): 25 µg/mL (≈ 33.4 µM)
MIC (S. aureus 209P-JC; 209P): 0.05 µg/mL (≈ 0.0668 µM)

CC[C@H]1OC(=O)[C@H](C)[C@@H](OC(=O)Cc2ccc([N+](=O)[O-])cc2)[C@H](C)[C@@H](O[C@@H]2O[C@H](C)C[C@H](N(C)C)[C@H]2O)[C@](C)(OC)C[C@@H](C)C(=NO)[C@H](C)[C@H]2OC(=O)O[C@@]21C [Example 1, 3-O-(4-nitrophenyl)acetyl-5-O-desosaminyl-6-O-methylerythronolide A 9-oxime 11,12cyclic carbonate]
MIC (S. epidermides IID 866): 0.05 µg/mL (≈ 0.063 µM)
MIC (S. aureus B1; [1]): 0.1 µg/mL (≈ 0.126 µM)
MIC (S. aureus Smith 4): 0.05 µg/mL (≈ 0.063 µM)
MIC (E. faecalis CSJ 1212; [3]): 0.05 µg/mL (≈ 0.063 µM)
MIC (S. aureus J-109): > 100 µg/mL
MIC (S. aureus C1; [4]): 0.1 µg/mL (≈ 0.126 µM)
MIC (S. aureus 209P-JC; [5]): 0.025 µg/mL (≈ 0.0315 µM)

CC[C@H]1OC(=O)[C@H](C)[C@@H](OC(=O)Cc2ccc([N+](=O)[O-])cc2[N+](=O)[O-])[C@H](C)[C@@H](O[C@@H]2O[C@H](C)C[C@H](N(C)C)[C@H]2O)[C@](C)(OC)C[C@@H](C)C(=O)[C@H](C)[C@@H](O)[C@]1(C)O [Example 3, 3-O-(2,4-dinitrophenyl)acetyl-5-O-desosaminyl-6-O-methylerythronolide A]
MIC (S. epidermides IID 866): 0.1 µg/mL (≈ 0.125 µM)
MIC (S. aureus B1; [1]): 0.2 µg/mL (≈ 0.251 µM)
MIC (S. aureus Smith 4): 0.1 µg/mL (≈ 0.125 µM)
MIC (E. faecalis CSJ 1212; [2]): 0.1 µg/mL (≈ 0.125 µM)
MIC (S. aureus J-109): > 100 µg/mL
MIC (S. aureus C1; [4]): 0.1 µg/mL (≈ 0.125 µM)
MIC (S. aureus 209P-JC; 209P): 0.05 µg/mL (≈ 0.0627 µM)

CC[C@H]1OC(=O)[C@H](C)[C@@H](OC(=O)Cc2ccc([N+](=O)[O-])cc2)[C@H](C)[C@@H](O[C@@H]2O[C@H](C)C[C@H](N(C)C)[C@H]2O)[C@](C)(OC)C[C@@H](C)C(=O)[C@H](C)[C@H]2OC(=O)O[C@@]21C [Example 9, 3-O-(4-nitrophenyl)acetyl-5-O-desosaminyl-6-O-methylerythronolide A 11,12 cyclic carbonate]
MIC (S. epidermides IID 866): 0.05 µg/mL (≈ 0.0642 µM)
MIC (S. aureus B1; S. aureus B1, sensitive disc media, read-out: MIC value (minimum inhibitory concentration)): 0.2 µg/mL (≈ 0.257 µM)
MIC (S. aureus Smith 4): 0.05 µg/mL (≈ 0.0642 µM)
MIC (E. faecalis CSJ 1212; [3]): 0.05 µg/mL (≈ 0.0642 µM)
MIC (S. aureus J-109): > 100 µg/mL
MIC (S. aureus C1; [4]): 0.05 µg/mL (≈ 0.0642 µM)
MIC (S. aureus 209P-JC; [5]): 0.025 µg/mL (≈ 0.0321 µM)

CC[C@H]1OC(=O)[C@H](C)[C@@H](OC(=O)Cc2ccc([N+](=O)[O-])cc2)[C@H](C)[C@@H](O[C@@H]2O[C@H](C)C[C@H](N(C)C)[C@H]2O)[C@](C)(O)C[C@@H](C)C(=NO)[C@H](C)[C@H]2OC(=O)O[C@@]21C [Example 15, 3-0-(4-nitrophenyl)acetyl-5-O-desosaminylerythronolide A 9-oxime 11,12-cyclic carbonate]
MIC (S. epidermides IID 866): 0.05 µg/mL (≈ 0.0641 µM)
MIC (S. aureus B1; [1]): 0.1 µg/mL (≈ 0.128 µM)
MIC (S. aureus Smith 4): 0.05 µg/mL (≈ 0.0641 µM)
MIC (E. faecalis CSJ 1212; [3]): 0.05 µg/mL (≈ 0.0641 µM)
MIC (S. aureus J-109): > 100 µg/mL
MIC (S. aureus C1; [4]): 0.78 µg/mL (≈ 1 µM)
MIC (S. aureus 209P-JC; 209P): 0.05 µg/mL (≈ 0.0641 µM)

CC[C@H]1OC(=O)[C@H](C)[C@@H](O[C@H]2C[C@@](C)(OC)[C@@H](O)[C@H](C)O2)[C@H](C)[C@@H](O[C@@H]2O[C@H](C)C[C@H](N(C)C)[C@H]2O)[C@](C)(O)C[C@@H](C)C(=O)[C@H](C)[C@@H](O)[C@]1(C)O [erythromycin A, reference compound]
MIC (S. epidermides IID 866): 0.1 µg/mL (≈ 0.136 µM)
MIC (S. aureus B1; [1]): > 100 µg/mL
MIC (S. aureus Smith 4): 0.2 µg/mL (≈ 0.273 µM)
MIC (E. faecalis CSJ 1212; [2]): 0.78 µg/mL (≈ 1.06 µM)
MIC (S. aureus J-109): > 100 µg/mL
MIC (S. aureus C1; [4]): > 100 µg/mL
MIC (S. aureus 209P-JC; 209P): 0.1 µg/mL (≈ 0.136 µM)
